Assays:
human TLR7 = target: T1, human TLR7 (Homo sapiens, UniProt Q9NYK1); test: Human TLR7 reporter gene assay (Test 1); assay type: cell-based; settings: half-maximal SEAP induction, TLR7/NF-κB/SEAPorter HEK293 cell line, overnight 37° C., 0.1% DMSO
T1 construct: expresses full-length human TLR7 and secretory alkaline phosphatase (SEAP) reporter gene; host or cells: TLR7/NF-κB/SEAPorter HEK293 cell line
T1 sequence (Q9NYK1 27-1049): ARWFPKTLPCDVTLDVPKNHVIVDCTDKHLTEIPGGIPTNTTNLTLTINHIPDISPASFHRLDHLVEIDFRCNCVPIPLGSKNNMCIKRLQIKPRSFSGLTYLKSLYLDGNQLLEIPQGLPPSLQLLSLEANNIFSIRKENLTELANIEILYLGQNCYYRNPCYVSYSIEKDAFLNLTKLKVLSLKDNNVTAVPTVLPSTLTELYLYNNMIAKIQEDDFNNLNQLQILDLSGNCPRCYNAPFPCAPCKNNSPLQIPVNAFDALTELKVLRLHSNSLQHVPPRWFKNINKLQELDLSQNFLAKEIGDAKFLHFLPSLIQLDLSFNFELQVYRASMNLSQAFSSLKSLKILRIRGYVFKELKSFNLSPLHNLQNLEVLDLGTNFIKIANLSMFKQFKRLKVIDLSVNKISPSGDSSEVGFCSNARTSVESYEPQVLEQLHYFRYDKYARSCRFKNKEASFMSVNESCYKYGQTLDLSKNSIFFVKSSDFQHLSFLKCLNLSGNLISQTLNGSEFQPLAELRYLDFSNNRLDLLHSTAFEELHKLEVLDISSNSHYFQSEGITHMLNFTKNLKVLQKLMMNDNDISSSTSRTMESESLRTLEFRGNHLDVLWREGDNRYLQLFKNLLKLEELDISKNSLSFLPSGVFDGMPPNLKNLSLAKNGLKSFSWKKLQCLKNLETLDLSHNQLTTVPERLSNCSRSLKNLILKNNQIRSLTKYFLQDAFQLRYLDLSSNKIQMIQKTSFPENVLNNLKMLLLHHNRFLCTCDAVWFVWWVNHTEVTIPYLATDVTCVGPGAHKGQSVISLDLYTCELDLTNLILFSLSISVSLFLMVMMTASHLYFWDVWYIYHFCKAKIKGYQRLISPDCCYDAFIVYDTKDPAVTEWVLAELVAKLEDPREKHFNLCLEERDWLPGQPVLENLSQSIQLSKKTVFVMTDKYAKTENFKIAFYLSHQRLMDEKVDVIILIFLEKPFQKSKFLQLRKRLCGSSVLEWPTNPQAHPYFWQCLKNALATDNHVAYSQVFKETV
Source text: TLR7/NF-κB/SEAPorter™ HEK293 cell line (Imgenex Corporation) is a stably co-transfected cell line which expresses full-length human TLR7 and secretory alkaline phosphatase (SEAP) reporter gene under the transcriptional regulation of an NF-κB response element. The TLR7 expression of the cell line has been already tested by flow cytometry. Transfectants with stable expression were selected using the antibiotic blasticidin and Geneticin. TLR signaling leads to the translocation of NF-κB and the activation of the promoter results in expression of the SEAP gene. TLR7-specific activation was assessed by determining the level of SEAP produced following overnight incubation of the cells at 37° C. with each compound prepared in Examples and Reference examples in the presence of 0.1% (v/v) dimethylsulfoxide (DMSO). The human TLR7 activity for the present compound was assessed by human TLR7 reporter gene assay, and the results are shown in Tables 6 and 7 as the compound concentration which produced half of the maximal level of SEAP induction (EC50).

[1] = system: HLA-A*02:01 transgenic mouse; test: In vivo adjuvant activity, CTL induction with vaccine b, IFNγ ELISPOT (Test 17); settings: 0.04 nmol or 0.4 nmol per body added to vaccine b versus no compound; twice
Protocol: The in vivo adjuvant activity of the compounds prepared in Examples 7, 8, and 9 was evaluated in the following procedure. To vaccine b comprising Compound of formula 4 prepared in Reference example 9 and Peptide SEQ ID No. 3 prepared in Reference example 3 with Montanide ISA51 VG was added the compound prepared in Example 7, 8, or 9 to prepare each vaccine. The vaccine was administered to a HLA-A*02:01 transgenic mouse, and the adjuvant activity of each vaccine was evaluated by the method of testing antigen-specific CTL induction.
(§1) Specifically, Compound of formula 4 and Peptide SEQ ID No. 3 were dissolved in DMSO, and then diluted with water for injection to concentrations of Compound of formula 4 of 3 mg/mL and Peptide SEQ ID No. 3 of 2.25 mg/mL. The diluted peptide solution was mixed and emulsified with an equal volume of Montanide ISA 51 VG to prepare vaccine b. Vaccine b was injected to mice intradermally at the tail base area in an amount for administering 300 μg of Compound of formula 4 per body and 225 μg of Peptide SEQ ID No. 3 per body. […] Then, after removal of the supernatant from the wells, stained spots on the ELISPOT plate were counted.

mouse TLR7 = target: T2, mouse TLR7 (Mus musculus, UniProt P58681); test: Mouse TLR7 reporter gene assay (Test 2); assay type: cell-based; settings: half-maximal SEAP induction, HEK-Blue mTLR7 cell line, overnight 37° C., 0.1% DMSO
T2 construct: expresses full-length mouse TLR7 and secretory SEAP reporter gene; host or cells: HEK-Blue mTLR7 cell line
T2 sequence (P58681 27-1050): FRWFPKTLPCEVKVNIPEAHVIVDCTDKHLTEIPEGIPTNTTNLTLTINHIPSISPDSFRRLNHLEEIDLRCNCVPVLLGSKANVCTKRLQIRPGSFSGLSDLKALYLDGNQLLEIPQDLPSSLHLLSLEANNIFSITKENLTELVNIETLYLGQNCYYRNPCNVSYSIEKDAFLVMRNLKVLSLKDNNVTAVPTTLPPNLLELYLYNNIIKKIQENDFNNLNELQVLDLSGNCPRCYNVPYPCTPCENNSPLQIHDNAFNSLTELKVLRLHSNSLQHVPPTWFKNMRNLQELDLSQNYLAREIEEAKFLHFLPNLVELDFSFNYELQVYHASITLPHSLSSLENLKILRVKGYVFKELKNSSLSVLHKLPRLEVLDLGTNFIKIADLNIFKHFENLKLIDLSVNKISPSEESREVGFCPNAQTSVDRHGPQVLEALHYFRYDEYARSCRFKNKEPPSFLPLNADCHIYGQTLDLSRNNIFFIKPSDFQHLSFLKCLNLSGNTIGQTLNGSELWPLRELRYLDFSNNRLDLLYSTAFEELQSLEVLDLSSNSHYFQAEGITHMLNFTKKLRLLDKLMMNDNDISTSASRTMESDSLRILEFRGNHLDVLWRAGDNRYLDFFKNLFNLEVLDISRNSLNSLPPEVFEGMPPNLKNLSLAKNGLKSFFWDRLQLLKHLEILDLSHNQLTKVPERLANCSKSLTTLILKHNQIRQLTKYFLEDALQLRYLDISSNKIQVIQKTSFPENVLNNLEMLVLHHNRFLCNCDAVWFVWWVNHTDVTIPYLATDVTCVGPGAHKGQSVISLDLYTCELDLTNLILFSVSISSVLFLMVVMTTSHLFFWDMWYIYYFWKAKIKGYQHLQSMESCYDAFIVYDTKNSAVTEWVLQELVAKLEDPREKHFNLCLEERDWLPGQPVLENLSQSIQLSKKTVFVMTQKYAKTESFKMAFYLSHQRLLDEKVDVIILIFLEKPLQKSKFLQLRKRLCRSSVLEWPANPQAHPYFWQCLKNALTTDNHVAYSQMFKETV
Source text: HEK-Blue™ mTLR7 cell line (Invivogen) is a stably co-transfected cell line which expresses full-length mouse TLR7 and secretory SEAP reporter gene under the transcriptional regulation of an NF-κB response element. The TLR7 expression of the cell line has been already tested by RT-PCR. Transfectants with stable expression were selected using the antibiotic blasticidin and Zeocin. TLR signaling leads to the translocation of NF-κB and the activation of the promoter results in expression of the SEAP gene. TLR7-specific activation was assessed by determining the level of SEAP produced following overnight incubation of the cells at 37° C. with each compound prepared in Examples and Reference examples in the presence of 0.1% (v/v) DMSO. The mouse TLR7 activity for the present compound was assessed by mouse TLR7 reporter gene assay, and the results are shown in Tables 8 and 9 as the compound concentration which produced half of the maximal level of SEAP induction (EC50).

[2] = system: HLA-A*02:01 transgenic mouse; test: In vivo adjuvant activity, CTL induction with vaccine b, IFNγ ELISPOT (Test 18); settings: 0.04 nmol per body added to vaccine b versus no compound; twice
Protocol: The in vivo adjuvant activity of the compound of Example 6 was evaluated in the following procedure. To vaccine b like Test 17 was added the compound prepared in Example 6 to prepare a vaccine. The vaccine was administered to a HLA-A*02:01 transgenic mouse, and the adjuvant activity of the vaccine was evaluated by the method of testing antigen-specific CTL induction.
as §1, with “body. Or, in the step of preparing vaccine b, the compound prepared in Example 6 was added to the diluted peptide solution to prepare a vaccine, and the prepared vaccine was injected to mice intradermally at the tail base area in an amount for administering 300 μg of Compound of formula 4 per body, 225 μg of Peptide SEQ ID No. 3 per body, and 0.04 nmol of the compound prepared in Example 6 per body.” for “body.”

SMILES	EC50 (human TLR7; Table 6, Examples) [nM]	CTL counts responsive to Peptide SEQ ID No. 5 [1]	also measured
COCCOc1nc(N)c2[nH]c(=O)n(Cc3ccc(CN(C)CCOCCOCCOCCOCCO)cc3)c2n1 [Example 4, 6-amino-9-{[4-(16-hydroxy-2-methyl-5,8,11,14-tetraoxa-2-azahexadecan-1-yl)phenyl]methyl}-2-(2-methoxyethoxy)-7,9-dihydro-8H-purin-8-one]	5300	–	–
CCCCOc1nc(N)c2[nH]c(=O)n(Cc3ccc(CN(C)CCOCCOCCOCCOCCOCCOCCOCCOCCOCCOCCOCCOCCOCCOCCOCCOCCOCCOCCOCCOCCOCCOCCOCCO)nc3)c2n1 [Example 8, 6-Amino-2-butoxy-9-{[6-(73-hydroxy-2-methyl-5,8,11,14,17,20,23,26,29,32,35,38,41,44,47,50,53,56,59,62,65,68,71-tricosaoxa-2-azatriheptacontan-1-yl)pyridin-3-yl]methyl}-7,9-dihydro-8H-purin-8-one]	–	more	–
CCCCOc1nc(N)c2[nH]c(=O)n(Cc3ccc(CN(C)CCOCCOCCOCCOCCOCCOCCOCCOCCOCCO)nc3)c2n1 [Example 7, 6-Amino-2-butoxy-9-{[6-(31-hydroxy-2-methyl-5,8,11,14,17,20,23,26,29-nonaoxa-2-azahentriacontan-1-yl)pyridin-3-yl]methyl}-7,9-dihydro-8H-purin-8-one]	–	more	–
CCCCOc1nc(N)c2[nH]c(=O)n(Cc3ccc(CN(C)CCOCCOCCOCCOCCO)cn3)c2n1 [Example 1, 6-amino-2-butoxy-9-{[5-(16-hydroxy-2-methyl-5,8,11,14-tetraoxa-2-azahexadecan-1-yl)pyridin-2-yl]methyl}-7,9-dihydro-8H-purin-8-one.trifluoroacetate]	150	–	EC50 (mouse TLR7; Table 8, Examples): 1450 nM
CCCCOc1nc(N)c2[nH]c(=O)n(Cc3ccc(CNC)cn3)c2n1 [compound 13, reference compound]	–	–	EC50 (human TLR7; Table 7, Reference examples): 82 nM; EC50 (mouse TLR7; Table 9, Reference examples): 279 nM
CCCCOc1nc(N)c2[nH]c(=O)n(Cc3ccc(CN(CCOCCOCCOCCO)CCOCCOCCOCCO)nc3)c2n1 [Example 6, 6-Amino-2-butoxy-9-({6-[13-hydroxy-2-(2-{2-[2-(2-hydroxyethoxy)ethoxy]ethoxy}ethyl)-5,8,11-trioxa-2-azatridecan-1-yl]pyridin-3-yl}methyl)-7,9-dihydro-8H-purin-8-one]	–	–	CTL counts responsive to Peptide SEQ ID No. 5 [2]: more

Reference: patent US20220241409A1, “WATER SOLUBLE ADJUVANT AND COMPOSITION CONTAINING SAME” (Sumitomo Dainippon Pharma Co., Ltd., priority 2019, published 2022)
